Data from US20230218632A1, “CYCLIC SULFONAMIDE DERIVATIVES AS TRAP1 MODULATORS AND USES THEREOF” (Amathus Therapeutics, Inc., priority 2020, published 2023).

Biological target: T1, TRAP1 enzyme (Homo sapiens, UniProt Q12931)
T1 sequence (Q12931 60-704): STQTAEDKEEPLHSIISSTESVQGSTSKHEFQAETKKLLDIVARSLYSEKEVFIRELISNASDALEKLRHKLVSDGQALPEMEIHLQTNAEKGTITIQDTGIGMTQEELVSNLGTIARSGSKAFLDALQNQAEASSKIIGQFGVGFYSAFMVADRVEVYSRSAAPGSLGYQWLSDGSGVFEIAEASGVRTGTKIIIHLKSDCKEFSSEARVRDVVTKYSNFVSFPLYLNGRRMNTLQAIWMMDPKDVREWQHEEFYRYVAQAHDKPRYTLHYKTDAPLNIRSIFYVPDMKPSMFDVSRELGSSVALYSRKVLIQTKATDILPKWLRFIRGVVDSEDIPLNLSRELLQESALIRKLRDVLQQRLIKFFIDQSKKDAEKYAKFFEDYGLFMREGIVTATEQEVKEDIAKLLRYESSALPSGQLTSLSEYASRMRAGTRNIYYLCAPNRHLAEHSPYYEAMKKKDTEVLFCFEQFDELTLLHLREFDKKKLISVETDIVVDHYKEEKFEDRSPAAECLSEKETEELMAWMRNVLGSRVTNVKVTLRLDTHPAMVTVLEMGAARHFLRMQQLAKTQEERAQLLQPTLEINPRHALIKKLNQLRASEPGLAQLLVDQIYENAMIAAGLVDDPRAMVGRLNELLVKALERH
Assay: ADP Glo assay (ATPase activity of TRAP1)
Format: biochemical
Details: for EC50: 150 nM Trap1, 20 µM ATP, concentration for half maximal activation, read-out: ADP GLO DRC: GeoMean EC50; for Emax: maximal percent activation, read-out: ADP GLO DRC: Mean Emax
Protocol: Potency of test compounds to modulate the ATPase activity of TRAP1 enzyme was evaluated using ADP Glo assay. The assay is based on quantification of the ADP generated from ATP in the ATPase reaction. The assay is performed in two steps; first, after the ATPase reaction, an equal volume of ADP-Glo™ Reagent is added to terminate the ATPase reaction and deplete the remaining ATP. Second, the Kinase Detection Reagent is added to simultaneously convert ADP to ATP and allow the newly synthesized ATP to be measured using a luciferase/luciferin reaction.
All the assays were carried out in a 384-well Proxiplate. The buffer used was 25 mM Pipes pH-7.5, 40 mM KCl, 0.05 mM MgCl2, 0.025 % BSA, 0.316 mM EGTA, 0.003% Empigen, 0.01% Igepal. 150 nM Trap1 enzyme was incubated with various concentrations of the test compound (0.79 µM - 100 µM) at 37° C. for 30 mins (except in blank wells). 20 µM ATP was added to each well to start the reaction. The plate was spun for 1 min at 1200 rpm and then incubated at 37° C. for 60 mins. 5 µl of ADP Glo reagent was added to all the wells and spun the plate for 1 min at 1200 rpm and kept it on a shaker at ambient temperature for 60 mins. 10 µl of kinase detection mix was added to all the wells and the plate was read for Luminescence at 495 nm. The amount of ADP released was estimated from ATP/ADP standard curve generated at the same experimental conditions. Emax (Maximal percent activation) and EC50 (concentration for half maximal activation ) were estimated by fitting the dose response data to a sigmoidal curve fitting equation using Graphpad Prism software V. 8.

EC50	Emax	Compound
30 to 100 µM	> 200%	O=C(Nc1ccc2c(c1)S(=O)(=O)N(c1ccc(C(F)(F)F)cc1)CCO2)c1ccc(O)nc1 [Compound 2299]
20 to 30 µM	129 to 149%	O=C(Nc1ccc2c(c1)S(=O)(=O)N(c1ccc(C(F)(F)F)cc1)CCO2)c1csc(CO)n1 [Compound 2305]
< 20 µM	129 to 149%	Cc1cnn(C)c1C(=O)Nc1ccc2c(c1)S(=O)(=O)N(c1ccc(C(F)(F)F)cc1)CCO2 [Compound 2317]
20 to 30 µM	150 to 200%	COc1ccncc1C(=O)Nc1ccc2c(c1)S(=O)(=O)N(c1ccc(C(F)(F)F)cc1)CCO2 [Compound 2323]
< 20 µM	150 to 200%	O=C(Nc1ccc2c(c1)S(=O)(=O)N(c1ccc(C(F)(F)F)cc1)CCO2)c1cnc[nH]c1=O [Compound 2334]
30 to 100 µM	150 to 200%	Cc1ncnc(C)c1C(=O)Nc1ccc2c(c1)S(=O)(=O)N(c1ccc(C(F)(F)F)cc1)CCO2 [Compound 2337]
< 20 µM	129 to 149%	Cc1cc(C(=O)Nc2ccc3c(c2)S(=O)(=O)N(c2ccc(C(F)(F)F)cc2)CCO3)n(C)n1 [Compound 2339]
30 to 100 µM	150 to 200%	Cc1ncn(C)c1C(=O)Nc1ccc2c(c1)S(=O)(=O)N(c1ccc(C(F)(F)F)cc1)CCO2 [Compound 2343]
< 20 µM	150 to 200%	CCc1ncccc1C(=O)Nc1ccc2c(c1)S(=O)(=O)N(c1ccc(C(F)(F)F)cc1)CCO2 [Compound 2344]
30 to 100 µM	150 to 200%	Cc1oncc1C(=O)Nc1ccc2c(c1)S(=O)(=O)N(c1ccc(C(F)(F)F)cc1)CCO2 [Compound 2345]
30 to 100 µM	> 200%	Cn1c(C(=O)Nc2ccc3c(c2)S(=O)(=O)N(c2ccc(C(F)(F)F)cc2)CCO3)cnc1O [Compound 2351]
< 20 µM	> 200%	Cc1ncc(C(=O)Nc2ccc3c(c2)S(=O)(=O)N(c2ccc(C(F)(F)F)cc2)CCO3)n1C [Compound 2355]
30 to 100 µM	150 to 200%	Cc1ccc(N2CCOc3ccc(NC(=O)c4ncoc4C)cc3S2(=O)=O)cc1 [Compound 2362]
30 to 100 µM	150 to 200%	Cc1ocnc1C(=O)Nc1ccc2c(c1)S(=O)(=O)N(c1ccc(F)cc1)CCO2 [Compound 2375, N-(2-(4-fluorophenyl)-1,1-dioxido-3,4-dihydro-2H-benzo[b][1,4,5]oxathiazepin-8-yl)-5-methyloxazole-4-carboxamide]
30 to 100 µM	150 to 200%	Cc1ocnc1C(=O)Nc1ccc2c(c1)S(=O)(=O)N(c1ccc(C#N)cc1)CCO2 [Compound 2377, N-(2-(4-cyanophenyl)-1,1-dioxido-3,4-dihydro-2H-benzo[b][1,4,5]oxathiazepin-8-yl)-5-methyloxazole-4-carboxamide]
30 to 100 µM	150 to 200%	Cc1ncoc1C(=O)Nc1ccc2c(c1)S(=O)(=O)N(c1ccc(C(F)(F)F)nc1)CCO2 [Compound 2388]
< 20 µM	129 to 149%	COc1cc(N2CCOc3ccc(NC(=O)c4ncoc4C)cc3S2(=O)=O)ccc1C(F)(F)F [Compound 2398]
30 to 100 µM	150 to 200%	CN1CCCCC1C(=O)Nc1ccc2c(c1)S(=O)(=O)N(c1ccc(C(F)(F)F)cc1)CCO2 (stereo not shown) [Compound 2402]
30 to 100 µM	150 to 200%	O=C(Nc1ccc2c(c1)S(=O)(=O)N(c1ccc(C(F)(F)F)cc1)CCO2)C1CCCN1 (stereo not shown) [Compound 2410]

EC50	Emax	Compound
30 to 100 µM	150 to 200%	CN1CCCC1C(=O)Nc1ccc2c(c1)S(=O)(=O)N(c1ccc(C(F)(F)F)cc1)CCO2 (stereo not shown) [Compound 2417]
< 20 µM	129 to 149%	O=C(Nc1ccc2c(c1)S(=O)(=O)N(c1ccc(C(F)(F)F)cc1)CCO2)c1cnc(-c2ccccc2)[nH]1 [Compound 2423]
30 to 100 µM	> 200%	O=C(Nc1ccc2c(c1)S(=O)(=O)N(c1ccc(C(F)(F)F)cc1)CCO2)c1csc2c1CNCC2 [Compound 2433]
20 to 30 µM	150 to 200%	CC(C)n1cncc1C(=O)Nc1ccc2c(c1)S(=O)(=O)N(c1ccc(C(F)(F)F)cc1)CCO2 [Compound 2439]
30 to 100 µM	150 to 200%	Cc1ncoc1C(=O)Nc1ccc2c(c1)S(=O)(=O)N(c1ccc(C(F)F)cc1)CCO2 [Compound 2443]
30 to 100 µM	150 to 200%	Cc1ocnc1C(=O)N(C)c1ccc2c(c1)S(=O)(=O)N(c1ccc(C(F)(F)F)cc1)CCO2 [Compound 2449]
< 20 µM	129 to 149%	Cn1cc(C(=O)Nc2ccc3c(c2)S(=O)(=O)N(c2ccc(C(F)(F)F)cc2)CCO3)c2cccnc21 [Compound 2451]
< 20 µM	129 to 149%	Cc1ncoc1C(=O)Nc1ccc2c(c1)S(=O)(=O)N(c1ccc(C(F)(F)F)cc1)CCC2 [Compound 2458]
20 to 30 µM	150 to 200%	Cn1cccc(C(=O)Nc2cnc3c(c2)S(=O)(=O)N(c2ccc(C(F)(F)F)cc2)CCO3)c1=O [Compound 2462]
30 to 100 µM	150 to 200%	CN1CCc2scc(C(=O)Nc3ccc4c(c3)S(=O)(=O)N(c3ccc(C(F)(F)F)cc3)CCO4)c2C1 [Compound 2472]
30 to 100 µM	> 200%	O=C(Nc1ccc2c(c1)S(=O)(=O)N(c1ccc(C(F)(F)F)cc1)CCO2)c1cc(=O)cc[nH]1 [Compound 2473]
30 to 100 µM	129 to 149%	O=C(Nc1ccc2c(c1)S(=O)(=O)N(c1ccc(C(F)(F)F)cc1)CCO2)c1ncoc1C(F)(F)F [Compound 2494]
20 to 30 µM	> 200%	Cc1cc(C(=O)Nc2cnc3c(c2)S(=O)(=O)N(c2ccc(C(F)(F)F)cc2)CCO3)n(C)n1 [Compound 2495]
30 to 100 µM	129 to 149%	O=C(Nc1ccc2c(c1)S(=O)(=O)N(c1ccc(C(F)(F)F)cc1)CCO2)c1csc(-c2ccccc2)n1 [Compound 2503]
30 to 100 µM	150 to 200%	Cc1cc(C(=O)Nc2ccc3c(c2)S(=O)(=O)N(c2ccc(C(F)(F)F)cc2)CCO3)cc(C)n1 [Compound 2510]
30 to 100 µM	> 200%	NCc1cccc(C(=O)Nc2ccc3c(c2)S(=O)(=O)N(c2ccc(C(F)(F)F)cc2)CCO3)n1 [Compound 2513]
20 to 30 µM	129 to 149%	O=C(Nc1ccc2c(c1)S(=O)(=O)N(c1ccc(C(F)(F)F)cc1)CCO2)c1cncn1CCO [Compound 2514]
20 to 30 µM	> 200%	Cc1cc(C(=O)Nc2cnc3c(c2)S(=O)(=O)N(c2ccc(C(F)(F)F)cc2)CCO3)cc(C)n1 [Compound 2515]
30 to 100 µM	> 200%	Cn1ccc(=O)cc1C(=O)Nc1ccc2c(c1)S(=O)(=O)N(c1ccc(C(F)(F)F)cc1)CCO2 [Compound 2516]
